One data set has as its target T1, Ba/F3-ETV6-NTRK3 (Homo sapiens, UniProt Q16288).
T1 construct: Ba/F3 cells with TPM3-NTRK1 or ETV6-NTRK3 fusion mutation gene stably overexpressed named Ba/F3-TPM3-NTRK1 and Ba/F3-ETV6-NTRK3; fused on or other part: P41212 (Transcription factor ETV6)
In words: Ba/F3-ETV6-NTRK3 cells proliferation assay. It counts as cell-based. As to conditions: 72 h, CellTiter Glo. Summed up: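 Ba/F3 cells stably expressing TPM3-NTRK1 or ETV6-NTRK3 fusions, 2000/well, exposed 72 h to compound at 300 to 0.05 nM final (3-fold series, 0.5% DMSO). Viability by CellTiter-Glo luminescence; IC50 by four-parameter nonlinear regression.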
A general note: ATP-based viability assays read luminescence as a measure of living cells.

For the next data set, the target named is T2, CYP2C8 (Homo sapiens, UniProt P10632).
T2 construct: from tissue; host or cells: human liver microsomes
T2 sequence (P10632 1-490): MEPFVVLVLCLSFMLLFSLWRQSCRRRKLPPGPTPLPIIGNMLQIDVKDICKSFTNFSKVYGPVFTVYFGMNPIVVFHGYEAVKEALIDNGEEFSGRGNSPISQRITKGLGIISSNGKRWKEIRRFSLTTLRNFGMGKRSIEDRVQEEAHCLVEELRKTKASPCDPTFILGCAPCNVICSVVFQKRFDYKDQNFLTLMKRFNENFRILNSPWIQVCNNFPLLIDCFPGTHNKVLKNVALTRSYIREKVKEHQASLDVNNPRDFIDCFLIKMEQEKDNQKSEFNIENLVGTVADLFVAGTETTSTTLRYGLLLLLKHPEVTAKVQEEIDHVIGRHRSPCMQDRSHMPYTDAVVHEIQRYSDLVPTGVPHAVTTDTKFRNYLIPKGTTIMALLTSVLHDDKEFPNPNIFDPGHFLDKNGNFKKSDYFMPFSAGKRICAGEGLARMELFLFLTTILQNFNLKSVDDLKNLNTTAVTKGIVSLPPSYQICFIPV
In words: Cytochrome P450 inhibition, CYP2C8. It counts as in vitro ADME. The following applies: probe Paclitaxel (5 μM); 10 μM compound, human liver microsomes, substrate Paclitaxel; read-out: Inhibition percentage CYP2C8 (Paclitaxel). As for the experimental part:
(§1) Example 205 Cytochrome P450 Measurements
(§2) The cytochrome P450 was measured as the following procedure:
(§3) 1) A master solution containing phosphate buffer, ultra-pure H2O, MgCl2 solution and human liver microsomes was made according to Table 17, and then 1 μL of 2 mM of compound solution or 1 μL of DMSO (as without inhibitor control) was added to the above master solution. The final concentration of test compounds or control compounds was 10 μM.
3) For CYP2C8 inhibition, 1 μL of specific drug substrate (Paclitaxel: 1 mM) was added at the final concentration of 5 μM to the above solution.
(§4) 8) The mixture was pre-warmed at 37° C. for 5 min. The reaction was started by the addition of 20 μL of 10 mM NADPH solution at the final concentration of 1 mM and carried out at 37° C.
(§5) 9) The reaction was stopped by addition of 300 μL of cold quench solution (methanol containing internal standards (1S, 500 nM Labetalol, 100 nM Alprazolam and 2 μM Ketoprofen) at the designated time points (Phenacetin: 20 min; Paclitaxel: 10 min; Tolbutamide: 20 min; (s)-Mephenytoin: 20 min; Midazolam: 5 min; Testosterone: 10 min). Samples were vortexed for 5 minutes and centrifuged at 3220 g for 40 minutes at 4° C. And then 100 μL of the supernatant was transferred to a new 96-well plate with 100 μL or 200 μL water (depends on the LC-MS signal response and peak shape) for LC-MS/MS analysis.
(§6) All experiments were performed in duplicates.
(§7) Inhibition percentages for compounds against CYP1A2, CYP2C8, CYP2C9, CYP2C19, and […]

For another data set, the target named is T3, CYP2C9 (Homo sapiens, UniProt P11712).
T3 construct: from tissue; host or cells: human liver microsomes
T3 sequence (P11712 whole entry): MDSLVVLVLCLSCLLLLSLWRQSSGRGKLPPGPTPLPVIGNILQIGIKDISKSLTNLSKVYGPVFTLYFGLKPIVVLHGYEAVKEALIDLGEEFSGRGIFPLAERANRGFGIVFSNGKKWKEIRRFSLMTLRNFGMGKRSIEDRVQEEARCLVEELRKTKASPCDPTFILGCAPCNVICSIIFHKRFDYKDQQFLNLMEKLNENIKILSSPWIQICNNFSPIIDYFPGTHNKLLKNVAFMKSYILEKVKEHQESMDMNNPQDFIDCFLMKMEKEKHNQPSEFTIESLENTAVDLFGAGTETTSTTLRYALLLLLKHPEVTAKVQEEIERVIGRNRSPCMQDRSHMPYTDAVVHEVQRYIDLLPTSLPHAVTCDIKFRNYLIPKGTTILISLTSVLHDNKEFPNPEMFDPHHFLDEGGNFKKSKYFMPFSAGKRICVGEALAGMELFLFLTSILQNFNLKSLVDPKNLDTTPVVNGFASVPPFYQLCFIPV
Put plainly: Cytochrome P450 inhibition, CYP2C9. It counts as in vitro ADME. As to conditions: probe Tolbutamide (200 μM); 10 μM compound, human liver microsomes, substrate Tolbutamide; read-out: Inhibition percentage CYP2C9 (Tolbutamide). The procedure:
as §1, §2, §3
4) For CYP2C9 inhibition, 1 μL of specific drug substrate (Tolbutamide: 40 mM) was added at the final concentration of 200 μM to the above solution.
as §4, §5, §6, §7
A general note: Liver microsomes are vesicles of endoplasmic reticulum, rich in cytochrome P450 enzymes.

The target of another data set is T4, CYP2C19 (Homo sapiens, UniProt P33261).
T4 construct: from tissue; host or cells: human liver microsomes
T4 sequence (P33261 whole entry): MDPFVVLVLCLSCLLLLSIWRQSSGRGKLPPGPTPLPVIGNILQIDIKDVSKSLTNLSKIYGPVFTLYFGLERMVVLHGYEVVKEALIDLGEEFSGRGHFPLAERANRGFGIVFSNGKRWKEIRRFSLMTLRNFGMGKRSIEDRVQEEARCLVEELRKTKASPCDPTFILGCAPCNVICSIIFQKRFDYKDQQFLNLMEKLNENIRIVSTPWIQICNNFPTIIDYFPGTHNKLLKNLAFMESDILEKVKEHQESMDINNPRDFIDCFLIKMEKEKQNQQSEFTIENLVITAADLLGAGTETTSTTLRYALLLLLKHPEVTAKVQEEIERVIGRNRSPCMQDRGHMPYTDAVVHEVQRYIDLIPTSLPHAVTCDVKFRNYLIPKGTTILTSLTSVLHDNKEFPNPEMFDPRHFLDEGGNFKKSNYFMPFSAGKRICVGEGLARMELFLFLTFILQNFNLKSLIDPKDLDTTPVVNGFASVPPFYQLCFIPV
Put plainly: Cytochrome P450 inhibition, CYP2C19. It is filed as in vitro ADME. The following applies: probe (s)-Mephenytoin (50 μM); 10 μM compound, human liver microsomes, substrate (s)-Mephenytoin; read-out: Inhibition percentage CYP2C19 ((s)-Mephenytoin). As for the experimental part:
as §1, §2, §3
5) For CYP2C19 inhibition, 1 μL of specific drug substrate ((s)-Mephenytoin: 10 mM) was added at the final concentration of 50 μM to the above solution.
as §4, §5, §6, §7

Results on five molecules are retold here after US20210395256A1, “TYROSINE KINASE INHIBITORS, COMPOSITIONS AND METHODS THERE OF” (Betta Pharmaceuticals Co., Ltd., priority 2018, published 2021).

A word on the IC50: it is the point on the concentration scale where inhibition reaches its midpoint. A higher IC50 goes with lower potency. One may read the inhibition as how much of the control response was suppressed.

T1 sequence (Q16288 whole entry, the tested form may be a part): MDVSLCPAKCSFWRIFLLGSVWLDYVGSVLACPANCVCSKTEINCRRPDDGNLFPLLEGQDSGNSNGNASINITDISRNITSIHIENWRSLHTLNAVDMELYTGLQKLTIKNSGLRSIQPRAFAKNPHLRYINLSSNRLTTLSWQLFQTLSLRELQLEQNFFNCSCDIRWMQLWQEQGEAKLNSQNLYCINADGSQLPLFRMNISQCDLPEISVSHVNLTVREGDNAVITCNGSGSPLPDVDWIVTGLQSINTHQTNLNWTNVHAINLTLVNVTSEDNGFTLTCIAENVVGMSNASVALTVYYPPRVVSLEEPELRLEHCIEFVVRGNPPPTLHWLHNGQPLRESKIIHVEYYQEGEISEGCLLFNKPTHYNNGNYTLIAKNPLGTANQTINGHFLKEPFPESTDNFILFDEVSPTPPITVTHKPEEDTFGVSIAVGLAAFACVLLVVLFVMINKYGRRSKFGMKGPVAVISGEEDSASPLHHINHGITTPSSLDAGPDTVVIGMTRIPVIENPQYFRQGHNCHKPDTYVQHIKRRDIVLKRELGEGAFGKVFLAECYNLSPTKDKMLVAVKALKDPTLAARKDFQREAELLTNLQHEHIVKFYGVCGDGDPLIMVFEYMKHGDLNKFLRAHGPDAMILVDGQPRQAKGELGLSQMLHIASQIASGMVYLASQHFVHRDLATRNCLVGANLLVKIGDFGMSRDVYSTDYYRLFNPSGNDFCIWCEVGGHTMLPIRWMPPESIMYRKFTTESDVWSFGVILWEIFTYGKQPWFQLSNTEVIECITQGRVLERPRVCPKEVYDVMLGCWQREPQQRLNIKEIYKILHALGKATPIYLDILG

Turning to `C[C@H](O)c1nnc(-c2cnn3ccc(N4CCC[C@@H]4c4cc(F)ccc4F)nc23)[nH]1` [Compound 4, (S)-1-(5-(5-((R)-2-(2,5-difluorophenyl)pyrrolidin-1-yl)pyrazolo[1,5-a]pyrimidin-3-yl)-4H-1,2,4-triazol-3-yl)ethan-1-ol], the IC50 at Ba/F3-ETV6-NTRK3 stood at 2.78 nM. For the same molecule, the inhibition at 10 min, 10 µM on CYP2C8 was 18.2%. Besides, the inhibition at 20 min, 10 µM at CYP2C9 turned out to be 5.96%; at CYP2C19, 7.23%.

As for `Cc1nnc(-c2cnn3ccc(N4CCCC4c4cc(F)ccc4F)nc23)[nH]1` (stereo not drawn) [Comparative compound A, 5-[2-(2,5-Difluorophenyl)pyrrolidin-1-yl]-3-(5-methyl-1H-1,2,4-triazol-3-yl)pyrazolo[1,5-a]pyrimidine, reference compound], the inhibition at 10 min, 10 µM on CYP2C8 was 19.3%. Also, the results for the inhibition at 20 min, 10 µM on CYP2C9 and on CYP2C19 were 25.4% and 13%, respectively.

At Ba/F3-ETV6-NTRK3, `CC(C)(O)c1nnc(-c2cnn3ccc(N4CCC[C@@H]4c4cc(F)ccc4F)nc23)[nH]1` [Compound 7, (R)-2-(5-(5-(2-(2,5-difluorophenyl)pyrrolidin-1-yl)pyrazolo[1,5-a]pyrimidin-3-yl)-4H-1,2,4-triazol-3-yl)propan-2-ol] displayed an IC50 of 5.68 nM. Also, on CYP2C8, the inhibition at 10 min, 10 µM amounted to 1.37%. Moreover, the inhibition at 20 min, 10 µM on CYP2C9 is 22.7%; on CYP2C19, 6.79%.

Regarding `OC(c1nnc(-c2cnn3ccc(N4CCC[C@@H]4c4cc(F)ccc4F)nc23)[nH]1)C(F)(F)F` (stereo partly drawn) [Compound 47, 1-(5-(5-((R)-2-(2,5-difluorophenyl)pyrrolidin-1-yl)pyrazolo[1,5-a]pyrimidin-3-yl)-4H-1,2,4-triazol-3-yl)-2,2,2-trifluoroethan-1-ol], the inhibition at 10 min, 10 µM at CYP2C8 turned out to be 32.8%. The values for the inhibition at 20 min, 10 µM on CYP2C9 and at CYP2C19 were 50.4% and 20.3%, respectively.

Take `C[C@H](N)c1nnc(-c2cnn3ccc(N4CCC[C@@H]4c4cc(F)ccc4F)nc23)[nH]1` [Compound 11, (S)-1-(5-(5-((R)-2-(2,5-difluorophenyl)pyrrolidin-1-yl)pyrazolo[1,5-a]pyrimidin-3-yl)-4H-1,2,4-triazol-3-yl)ethan-1-amine]: at Ba/F3-ETV6-NTRK3, the IC50 is 5.79 nM.
